Source: article doi:10.1101/2021.06.10.447950v1 (biorxiv, 2021)

Experiments:
Assay in all cases: fluorogenic peptidase assay, initial rate
Format in all cases: biochemical
cathepsin L = cathepsin L (Homo sapiens, UniProt P07711)
cathepsin K = target: T1, cathepsin K (Homo sapiens, UniProt P43235)
T1 sequence (P43235 115-329): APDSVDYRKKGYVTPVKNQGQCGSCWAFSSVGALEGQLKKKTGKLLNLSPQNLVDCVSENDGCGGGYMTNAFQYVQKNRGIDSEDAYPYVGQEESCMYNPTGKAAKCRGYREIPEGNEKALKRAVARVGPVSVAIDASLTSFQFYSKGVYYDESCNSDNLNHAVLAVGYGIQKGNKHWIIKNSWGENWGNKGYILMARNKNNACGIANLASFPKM

cathepsin B = cathepsin B (Homo sapiens, UniProt P07858)

cathepsin L, sequence (P07711 114-288): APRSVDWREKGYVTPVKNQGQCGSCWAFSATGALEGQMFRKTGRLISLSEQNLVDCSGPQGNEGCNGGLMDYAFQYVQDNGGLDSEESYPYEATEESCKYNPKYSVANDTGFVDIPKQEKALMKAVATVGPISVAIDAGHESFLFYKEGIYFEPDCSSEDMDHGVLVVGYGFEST
cathepsin L, sequence (P07711 292-333): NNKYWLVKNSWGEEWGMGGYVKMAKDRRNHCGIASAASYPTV

Row | SMILES | IC50 (cathepsin L) [nM] | IC50 (cathepsin K) [nM] | IC50 (cathepsin B) [nM]
1 | O=C[C@H](C[C@@H]1CCNC1=O)NC(=O)[C@H](CC1CCCCC1)NC(=O)c1cc2ccccc2[nH]1 [11a] | 0.14 ± 0.04 | 1.4 ± 0.2 | 4.9 ± 0.4
2 | O=C[C@H](C[C@@H]1CCNC1=O)NC(=O)[C@H](Cc1ccccc1)NC(=O)OCc1ccccc1 [MPI1] | 0.079 ± 0.029 | 0.88 ± 0.12 | 25 ± 2
3 | O=C[C@H](C[C@@H]1CCNC1=O)NC(=O)[C@H](Cc1ccccc1)NC(=O)/C=C/c1ccc(Cl)cc1F [MPI2] | 0.19 ± 0.03 | 0.78 ± 0.06 | 4.1 ± 0.4
4 | CC(C)C[C@H](NC(=O)[C@@H](NC(=O)OCc1ccccc1)C(C)C)C(=O)N[C@H](C=O)C[C@@H]1CCNC1=O [MPI3] | 0.3 ± 0.07 | 1.18 ± 0.18 | 112 ± 10
5 | CC(C)[C@H](NC(=O)OCc1ccccc1)C(=O)N[C@@H](Cc1ccccc1)C(=O)N[C@H](C=O)C[C@@H]1CCNC1=O [MPI4] | 0.33 ± 0.04 | 49 ± 16 | 46 ± 3
6 | CC(C)[C@H](NC(=O)OCc1ccccc1)C(=O)N[C@@H](CC1CCCCC1)C(=O)N[C@H](C=O)C[C@@H]1CCNC1=O [MPI5] | 2.3 ± 1.9 | 134 ± 18 | 80 ± 6
7 | CC(C)C[C@H](NC(=O)[C@@H](NC(=O)OCc1ccccc1)[C@@H](C)OC(C)(C)C)C(=O)N[C@H](C=O)C[C@@H]1CCNC1=O [MPI6] | 0.45 ± 0.08 | 1.07 ± 0.21 | 380 ± 21
8 | C[C@@H](OC(C)(C)C)[C@H](NC(=O)OCc1ccccc1)C(=O)N[C@@H](Cc1ccccc1)C(=O)N[C@H](C=O)C[C@@H]1CCNC1=O [MPI7] | 0.61 ± 0.15 | 51 ± 6 | 64 ± 7
9 | C[C@@H](OC(C)(C)C)[C@H](NC(=O)OCc1ccccc1)C(=O)N[C@@H](CC1CCCCC1)C(=O)N[C@H](C=O)C[C@@H]1CCNC1=O [MPI8] |  |  | 230 ± 20
10 | CC(C)C[C@H](NC(=O)[C@@H](NC(=O)/C=C/c1ccc(Cl)cc1F)C(C)C)C(=O)N[C@H](C=O)C[C@@H]1CCNC1=O [MPI9] | 0.56 ± 0.06 | 1.5 ± 0.2 | 147 ± 10
